Laboratory results published in US11203574B2 (BioCryst Pharmaceuticals, Inc., priority 2014, dated 2021).

These compounds were tested against human plasma kallikrein (Homo sapiens (Human), UniProt P03952) (assay: Plasma kallikrein activity assay (chromogenic substrate S2302)). Conditions: 2 nM kallikrein, 80 μM S2302, 30° C., pH 7.8; Ki by Cheng-Prusoff equation; values given as ranges; read-out: Ki.
Type: biochemical
Experimental: Plasma Kallikrein Activity Assay.
The effect of compounds of the invention on human plasma kallikrein activity was determined using the chromogenic substrates (DiaPharma Group, Inc., West Chester, Ohio, USA). In these experiments, 2 nM kallikrein (Enzyme Research Laboratories, South Bend, Ind., USA) was incubated with 80 μM S2302 (H-D-Pro-Phe-Arg-p-nitroaniline) in the absence or presence of increasing concentrations of compounds of the invention in a final volume of 200 μL Tris-HCl buffer (200 mM NaCl; mM CaCl2; 50 mM Tris-HCl, pH 7.8).
Data were analyzed using SigmaPlot software (Systat Software, Inc., San Jose, Calif., USA) (Four Parameter Logistic Curve).

Chain of human plasma kallikrein (P03952 whole entry, looked up): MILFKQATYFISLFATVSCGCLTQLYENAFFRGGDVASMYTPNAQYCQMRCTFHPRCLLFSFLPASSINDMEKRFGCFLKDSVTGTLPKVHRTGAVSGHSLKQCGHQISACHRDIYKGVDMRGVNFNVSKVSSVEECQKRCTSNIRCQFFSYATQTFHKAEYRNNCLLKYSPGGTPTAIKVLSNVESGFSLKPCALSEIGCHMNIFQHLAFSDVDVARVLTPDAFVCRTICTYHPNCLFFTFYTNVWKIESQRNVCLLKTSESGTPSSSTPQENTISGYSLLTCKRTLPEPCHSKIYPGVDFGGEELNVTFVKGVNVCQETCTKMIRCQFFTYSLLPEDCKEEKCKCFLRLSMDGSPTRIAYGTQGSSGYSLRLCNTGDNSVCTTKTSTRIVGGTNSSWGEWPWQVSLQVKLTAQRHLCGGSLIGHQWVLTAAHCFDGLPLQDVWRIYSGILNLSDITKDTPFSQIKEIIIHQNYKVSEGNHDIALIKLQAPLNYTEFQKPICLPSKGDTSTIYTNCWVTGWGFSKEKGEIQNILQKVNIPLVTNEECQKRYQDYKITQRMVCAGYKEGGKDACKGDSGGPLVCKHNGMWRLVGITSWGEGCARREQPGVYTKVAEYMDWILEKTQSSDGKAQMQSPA
Chain of human plasma kallikrein (P03952 whole entry partner, looked up): as the sequence (P03952 whole entry, looked up) above

| Structure (SMILES) | Ki [nM] |
| --- | --- |
| N#Cc1cccc(C(N)(CCC2CC2)c2ccc(F)c(NC(=O)c3cc(C(F)(F)F)nn3-c3cccc(C(=N)N)c3)c2)c1 (single isomer, unassigned; (+)) [237a, (+)-N-(5-(1-amino-1-(3-cyanophenyl)-3-cyclopropylpropyl)-2-fluorophenyl)-1-(3-carbamimidoylphenyl)-3-(trifluoromethyl)-1H-pyrazole-5-carboxamide] | 0.1 to 50 |
| CS(=O)(=O)c1ccc(C(NCC2CC2)c2cccc(NC(=O)c3cc(C(F)(F)F)nn3-c3cccc(CN)c3)c2)cc1 (centres unmarked) [113f, 1-(3-(aminomethyl)phenyl)-N-(3-((cyclopropylmethylamino)(4-(methylsulfonyl)phenyl)methyl)phenyl)-3-(trifluoromethyl)-1H-pyrazole-5-carboxamide] | 0.1 to 50 |
| CCCOc1ccc(C(NCC2CC2)c2cccc(NC(=O)c3cc(C(F)(F)F)nn3-c3cccc(CN)c3)c2)cc1 (centres unmarked) [127f, 1-(3-(Aminomethyl)phenyl)-N-(3-((cyclopropylmethylamino)(4-propoxyphenyl)methyl)phenyl)-3-(trifluoromethyl)-1H-pyrazole-5-carboxamide] | 0.1 to 50 |
| NCc1cccc(-n2nc(C(F)(F)F)cc2C(=O)Nc2cccc(C(OCC3CC3)c3cccnc3)c2)c1 (racemic) [44c, 1-(3-(aminomethyl)phenyl)-N-(3-((cyclopropylmethoxy)(pyridin-3-yl)methyl)phenyl)-3-(trifluoromethyl)-1H-pyrazole-5-carboxamide] | 0.1 to 50 |
| NCc1cccc(-n2nc(C(F)(F)F)cc2C(=O)Nc2cccc(C(CCC3CC3)N3CCCC3=O)c2)c1 (centres unmarked) [247e, 1-(3-(aminomethyl)phenyl)-N-(3-(3-cyclopropyl-1-(2-oxopyrrolidin-1-yl)propyl)phenyl)-3-(trifluoromethyl)-1H-pyrazole-5-carboxamide] | 0.1 to 50 |
| NCc1cccc(-n2nc(C(F)(F)F)cc2C(=O)Nc2cccc(C(NCC3CC3)c3ccncc3)c2)c1 (centres unmarked) [86g, 1-(3-(aminomethyl)phenyl)-N-(3-((cyclopropylmethylamino)(pyridin-4-yl)methyl)phenyl)-3-(trifluoromethyl)-1H-pyrazole-5-carboxamide] | 0.1 to 50 |
| Cn1cc(C(NCC2CC2)c2cccc(NC(=O)c3cc(C(F)(F)F)nn3-c3cccc(CN)c3)c2)cn1 (centres unmarked) [104f, 1-(3-(aminomethyl)phenyl)-N-(3-((cyclopropylmethylamino)(1-methyl-1H-pyrazol-4-yl)methyl)phenyl)-3-(trifluoromethyl)-1H-pyrazole-5-carboxamide] | 0.1 to 50 |
| CCNCc1cccc(-n2nc(C(F)(F)F)cc2C(=O)Nc2cc(C(NCC3CC3)c3ccccc3)ccc2F)c1 (single isomer, unassigned; (-)) [270a, (−)-N-(5-((cyclopropylmethylamino)(phenyl)methyl)-2-fluorophenyl)-1-(3-((ethylamino)methyl)phenyl)-3-(trifluoromethyl)-1H-pyrazole-5-carboxamide] | 50 to 100 |
| NCc1cccc(-n2nc(C(F)(F)F)cc2C(=O)Nc2cc(C(N)(CCC3CC3)c3ccc(C(N)=O)cc3)ccc2F)c1 (single isomer, unassigned; (+)) [228a, (+)-N-(5-(1-amino-1-(4-carbamoylphenyl)-3-cyclopropylpropyl)-2-fluorophenyl)-1-(3-(aminomethyl)phenyl)-3-(trifluoromethyl)-1H-pyrazole-5-carboxamide] | 0.1 to 50 |
| N=C(N)c1cccc(-n2nc(C(F)(F)F)cc2C(=O)Nc2cc(C(NCC3CC3)c3ccccc3)ccc2F)c1 (single isomer, unassigned; (-)) [227d, (−)-1-(3-carbamimidoylphenyl)-N-(5-((cyclopropylmethylamino)(phenyl)methyl)-2-fluorophenyl)-3-(trifluoromethyl)-1H-pyrazole-5-carboxamide] | 0.1 to 50 |
| NCc1cccc(-n2nc(C(F)(F)F)cc2C(=O)Nc2cccc(C(NC(=O)C3CC3)c3ccccc3)c2)c1 (centres unmarked) [115e, 1-(3-(aminomethyl)phenyl)-N-(3-(cyclopropanecarboxamido(phenyl)methyl)phenyl)-3-(trifluoromethyl)-1H-pyrazole-5-carboxamide] | 50 to 100 |
| NCc1cccc(-n2nc(C(F)(F)F)cc2C(=O)Nc2cccc(C(NCC3CC3)c3ccc(S(N)(=O)=O)cc3)c2)c1 (centres unmarked) [112g, 1-(3-(aminomethyl)phenyl)-N-(3-((cyclopropylmethylamino)(4-sulfamoylphenyl)methyl)phenyl)-3-(trifluoromethyl)-1H-pyrazole-5-carboxamide] | 0.1 to 50 |
| NCc1cccc(-n2nc(C(F)(F)F)cc2C(=O)Nc2cccc(C(OCC3CC3)c3cccnc3)c2)c1 (single isomer, unassigned; (-)) [44e, (−)-1-(3-(aminomethyl)phenyl)-N-(3-((cyclopropylmethoxy)(pyridin-3-yl)methyl)phenyl)-3-(trifluoromethyl)-1H-pyrazole-5-carboxamide] | 0.1 to 50 |
| NCc1cccc(-n2nc(C(F)(F)F)cc2C(=O)Nc2cccc(C(OCC3CC3)c3cccc(N)c3)c2)c1 (single isomer, unassigned; (+)) [64b, (+)-1-(3-(aminomethyl)phenyl)-N-(3-((3-aminophenyl)(cyclopropyl-methoxy)methyl)phenyl)-3-(trifluoromethyl)-1H-pyrazole-5-carboxamide] | 0.1 to 50 |
| CN1CCCN(C(CCC2CC2)c2ccc(F)c(NC(=O)c3cc(C(F)(F)F)nn3-c3cccc(CN)c3)c2)CC1 (centres unmarked) [251e, 1-(3-(aminomethyl)phenyl)-N-(5-(3-cyclopropyl-1-(4-methyl-1,4-diazepan-1-yl)propyl)-2-fluorophenyl)-3-(trifluoromethyl)-1H-pyrazole-5-carboxamide] | 50 to 100 |
| NCc1cccc(-n2nc(C(F)(F)F)cc2C(=O)Nc2cc(C(=CCC3CC3)c3ccccc3)ccc2F)c1 [252c, 1-(3-(aminomethyl)phenyl)-N-(5-(3-cyclopropyl-1-phenylprop-1-enyl)-2-fluorophenyl)-3-(trifluoromethyl)-1H-pyrazole-5-carboxamide] | 0.1 to 50 |
| NCc1cccc(-n2nc(C(F)(F)F)cc2C(=O)Nc2cccc(C(CCC3CC3)n3ccnc3)c2)c1 (centres unmarked) [89g, 1-(3-(aminomethyl)phenyl)-N-(3-(3-cyclopropyl-1-(1H-imidazol-1-yl)propyl)phenyl)-3-(trifluoromethyl)-1H-pyrazole-5-carboxamide] | 0.1 to 50 |
| NCc1cccc(-n2nc(C(F)(F)F)cc2C(=O)Nc2cccc(C(O)(CCC3CC3)c3ccccc3)c2)c1 (single isomer, unassigned; (-)) [46i, (−)-1-(3-(aminomethyl)phenyl)-N-(3-(3-cyclopropyl-1-hydroxy-1-phenylpropyl)phenyl)-3-(trifluoromethyl)-1H-pyrazole-5-carboxamide] | 0.1 to 50 |
| NCc1cccc(-n2nc(C(F)(F)F)cc2C(=O)Nc2cccc(C(NCC3CC3)c3ccc(Cl)cc3)c2)c1 (centres unmarked) [199f] | 0.1 to 50 |
| CC(=O)NC(CCC1CC1)(c1cccnc1)c1ccc(F)c(NC(=O)c2cc(C(F)(F)F)nn2-c2cccc(CN)c2)c1 (single isomer, unassigned; (-)) [244h, (−)-N-(5-(1-acetamido-3-cyclopropyl-1-(pyridin-3-yl)propyl)-2-fluorophenyl)-1-(3-(aminomethyl)phenyl)-3-(trifluoromethyl)-1H-pyrazole-5-carboxamide] | 0.1 to 50 |
| COc1cccc(C(NCC2CC2)c2cccc(NC(=O)c3cc(C(F)(F)F)nn3-c3cccc(CN)c3)c2)c1 (centres unmarked) [109f, 1-(3-(Aminomethyl)phenyl)-N-(3-((cyclopropylmethylamino)(3-methoxyphenyl)methyl)phenyl)-3-(trifluoromethyl)-1H-pyrazole-5-carboxamide] | 0.1 to 50 |
| NCc1cccc(C(NCC2CC2)c2ccc(F)c(NC(=O)c3cc(C(F)(F)F)nn3-c3cccc(CN)c3)c2)c1 (centres unmarked) [155c, 1-(3-(aminomethyl)phenyl)-N-(5-((3-(aminomethyl)phenyl)(cyclopropylmethylamino)methyl)-2-fluorophenyl)-3-(trifluoromethyl)-1H-pyrazole-5-carboxamide] | 0.1 to 50 |
| NCc1cccc(-n2nc(C(F)(F)F)cc2C(=O)Nc2cccc(C(NCC3CC3)c3nccs3)c2)c1 (centres unmarked) [85c, 1-(3-(aminomethyl)phenyl)-N-(3-((cyclopropylmethylamino)(thiazol-2-yl)methyl)phenyl)-3-(trifluoromethyl)-1H-pyrazole-5-carboxamide] | 0.1 to 50 |
| NCc1cccc(-n2nc(C(F)(F)F)cc2C(=O)Nc2cccc(C(O)(CCC3CC3)c3ccccc3)c2)c1 (single isomer, unassigned; (+)) [46h, (+)-1-(3-(aminomethyl)phenyl)-N-(3-(3-cyclopropyl-1-hydroxy-1-phenylpropyl)phenyl)-3-(trifluoromethyl)-1H-pyrazole-5-carboxamide] | 0.1 to 50 |
| NCc1cccc(-n2nc(C(F)(F)F)cc2C(=O)Nc2cccc(C(NCC3CC3)c3ccc(O)cc3)c2)c1 (centres unmarked) [135c, 1-(3-(aminomethyl)phenyl)-N-(3-(((cyclopropylmethyl)amino)(4-hydroxyphenyl)methyl)phenyl)-3-(trifluoromethyl)-1H-pyrazole-5-carboxamide] | 0.1 to 50 |
| N#Cc1cccc(C(NCC2CC2)c2cccc(NC(=O)c3cc(C(F)(F)F)nn3-c3cccc(CN)c3)c2)c1 (centres unmarked) [152d, 1-(3-(aminomethyl)phenyl)-N-(3-((3-cyanophenyl)(cyclopropylmethylamino)methyl)phenyl)-3-(trifluoromethyl)-1H-pyrazole-5-carboxamide] | 0.1 to 50 |
| Cc1cc(C(=O)Nc2cccc(C(NCC3CC3)c3ccccc3)c2)n(-c2cccc(CN)c2)n1 (centres unmarked) [143l, 1-(3-(aminomethyl)phenyl)-N-(3-((cyclopropylmethylamino)(phenyl)methyl)phenyl)-3-methyl-1H-pyrazole-5-carboxamide] | 0.1 to 50 |
| CS(=O)(=O)c1cccc(C(NCC2CC2)c2cccc(NC(=O)c3cc(C(F)(F)F)nn3-c3cccc(CN)c3)c2)c1 (centres unmarked) [114f, 1-(3-(aminomethyl)phenyl)-N-(3-((cyclopropylmethylamino)(3-(methylsulfonyl)phenyl)methyl)phenyl)-3-(trifluoromethyl)-1H-pyrazole-5-carboxamide] | 0.1 to 50 |
| NCc1cccc(-n2nc(C(F)(F)F)cc2C(=O)Nc2cc(C(NCC3CC3)c3ccccn3)ccc2F)c1 (centres unmarked) [100e, 1-(3-(aminomethyl)phenyl)-N-(5-((cyclopropylmethylamino)(pyridin-2-yl)methyl)-2-fluorophenyl)-3-(trifluoromethyl)-1H-pyrazole-5-carboxamide] | 0.1 to 50 |
